Test results from patent US20060264418A1, “6-(2,2,2-Trifluoroethylamino-7-chloro-2,3,4,5-tetrahydro-1h-benzo[d] azephine as a 5-ht2c receptor agonist” (priority 2003, published 2006).
pIC50: −log10 of the molar value.

Experiments:
Wistar rats = test: Schedule-induced polydipsia; assay type: in vivo, rat
Source text: Food-deprived rats exposed to intermittent presentations of food will drink amounts of water that are far in excess of their normal daily intake and in excess of their intake when given all of their food at one time (Falk J L. “Production of polydipsia in normal rats by an intermittent food schedule”, Science 133: 195-196, (1961)). This excessive behavior is persistent and has been used to model OCD.
Maintain Wistar rats on a food restricted diet (to maintain 85% free feeding weight), but with free access to water. Train the rats in a behavioral testing chamber to press a lever to receive a food pellet under a fixed interval schedule, such that the rats are rewarded with a 45 mg food pellet the first time they press a lever after a 120 second interval has elapsed. The fixed interval is then reset to 120 seconds and the process repeated. Thus, during a 90 min. test session, the rats can earn a maximum of 45 pellets. The behavioral chamber is also equipped with a water bottle that is weighed before and after the session to determine the amount of water consumed.
Administer test compounds on Tuesdays and Fridays. Determine control day performances on Thursdays. Administer compounds either orally at 60 min. before the beginning of a test session, or subcutaneously at 20 min. before the beginning of a test session. Compare the rates of lever pressing and water consumption for each animal's performance during sessions after test compound treatment with that animal's performance during control sessions, expressed as a percent of the control rate. Average the individual percent of control rates for each dose and calculate the standard error of the mean.
The in vivo efficacy of 5HT2C compounds at the 5HT2C receptor was confirmed by the prevention of effects of the 5HT2C agonists on excessive drinking by co-administration of the 5HT2C receptor antagonist, 6-chloro-5-methyl-N-(2-(2-methylpyridin-3-yl-oxy)pyridin-5-yl)aminocarbonyl)-2,3-dihydroindole.

[1] = target: alpha 2 adrenergic receptor; test: Radioligand receptor binding assay, alpha 2 adrenergic
male Long-Evans rats = test: Calorimetric acute feeding assay; assay type: in vivo, rat; conditions: oral dose
Source text: Animals: Obtain male Long-Evans rats (Harlan Sprague-Dawley, Indianapolis, Ind.) that are approximately one hundred-days old and have been maintained on a calorie rich diet since weaning (TD 95217, 40% calories from fat; Teklad, Madison, Wis.). House the rats individually with a 12 hr.:12 hr. light:dark cycle (lights on from about 22:00 hr. to about 10:00 hr.) and maintain rats on the same diet (TD 95217) with free access to water, for about 1-2 weeks to acclimate the rats to the environment. Dose rats orally with vehicle (10% acacia with 0.15% saccharin in water) once daily for at least 1 day (typically 1-2 days) to acclimate the rats to the procedures. Randomize the rats into groups so each group has similar mean body weights.
Calorimetric Acute Feeding Assay: At approximately 8:00 hr. on the day of assay, weigh each rat and transfer to individual chambers of an open circuit calorimetry system (Oxymax, Columbus Instruments International Corporation; Columbus, Ohio), with free access to food (pre-weighed) and water, and begin measuring VO2 and VCO2. At approximately 10:00 hr., dose rats orally with vehicle or test compound, return them to their calorimetry chambers, and continue measuring VO2 and VCO2 at regular time intervals (approximately hourly). At approximately 8:00 hr. the following day, measure rat body weight and the remaining food, assuming the difference in weight of food is equal to the mass of food consumed. Calculate the 24 hr. energy expenditure (EE) and respiratory quotient (RQ) essentially as described in Chen, Y. and Heiman, M. L., Regulatory Peptide, 92:113-119 (2000). […]
Calculate EE as the product of calorific value (CV) and VO2 per body weight (kg); where CV=3.815+1.232*RQ, and RQ is the ratio of CO2 produced (VCO2) to O2 consumed (VO2). Caloric intake is calculated as (mass of 24 hr. food intake in grams)×(physiological fuel value of the diet in kilocalorie/g) per kg of body weight.

[2] = target: alpha 1 adrenergic receptor; test: Radioligand receptor binding assay, alpha 1 adrenergic

FC(F)(F)CNc1c(Cl)ccc2c1CCNCC2.O=C(O)CCC(=O)O [Example 2, 7-Chloro-6-(2,2,2-trifluoroethylamino)-2,3,4,5-tetrahydro-1H-benzo[d]azepine Succinic Acid Salt]
schedule-induced polydipsia (excessive drinking) (Wistar rats; food restricted rats, 90 min. test session): suppress schedule-induced polydipsia without producing notable changes in motor patterns, food intake, or behavior the following day | suppression of excessive drinking with co-administration of the 5-HT2C receptor antagonist (Wistar rats; rats): blocked | pIC50 [1]: < 5.52 | 24 hr. food intake (male Long-Evans rats; acute assays, rats on calorie rich diet): significantly reduce 24 hr. food intake | respiratory quotient (RQ) (male Long-Evans rats; acute, 24 hr. calorimetry): dose-dependently reduced RQ | energy expenditure during the light photoperiod (male Long-Evans rats; acute, indicative of resting metabolic rate): without significantly changing | pIC50 [2]: < 5.52
